Results from patent publication US20230128402A1 (The Trustees of Princeton University, priority 2020, published 2023).
Blank lines part the entries; values can stand above or below the compound they belong to.

Assays:
[1] = biological target: T1, ALDH1a3 (Homo sapiens, UniProt P47895); assay: Aldh1a3 enzyme inhibition assay, recombinant hALDH1a3; assay type: biochemical; set-up: made in house; host or cells: E. coli BL21-DE3, pET-Aldh1a3; settings: resorufin fluorescence, 20° C.
T1 sequence (P47895 1-512): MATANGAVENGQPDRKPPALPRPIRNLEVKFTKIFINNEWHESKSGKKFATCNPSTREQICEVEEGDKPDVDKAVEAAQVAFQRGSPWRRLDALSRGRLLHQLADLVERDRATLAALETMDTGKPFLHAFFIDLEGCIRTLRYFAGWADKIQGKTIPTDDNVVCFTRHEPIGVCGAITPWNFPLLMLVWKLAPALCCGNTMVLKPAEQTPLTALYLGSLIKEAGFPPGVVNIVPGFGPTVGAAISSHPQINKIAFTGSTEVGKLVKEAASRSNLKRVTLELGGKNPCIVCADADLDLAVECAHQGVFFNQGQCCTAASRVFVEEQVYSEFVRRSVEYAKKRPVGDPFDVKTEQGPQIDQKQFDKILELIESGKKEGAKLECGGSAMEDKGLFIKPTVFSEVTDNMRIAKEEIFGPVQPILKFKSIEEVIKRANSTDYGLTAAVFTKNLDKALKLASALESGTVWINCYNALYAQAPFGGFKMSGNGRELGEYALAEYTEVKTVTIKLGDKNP
Text: (§1) Recombinant enzyme and inhibitor added immediately before assay. Reaction rate measured by resorufin fluorescence.

[2] = biological target: T2, mALDH1a3 (Mus musculus, UniProt Q9JHW9); assay: Aldh1a3 enzyme inhibition assay, recombinant mALDH1a3; assay type: biochemical; settings: resorufin fluorescence, 20° C.
T2 construct: made in house; host or cells: E. coli BL21-DE3, pET-Aldh1a3
T2 sequence (Q9JHW9 1-512): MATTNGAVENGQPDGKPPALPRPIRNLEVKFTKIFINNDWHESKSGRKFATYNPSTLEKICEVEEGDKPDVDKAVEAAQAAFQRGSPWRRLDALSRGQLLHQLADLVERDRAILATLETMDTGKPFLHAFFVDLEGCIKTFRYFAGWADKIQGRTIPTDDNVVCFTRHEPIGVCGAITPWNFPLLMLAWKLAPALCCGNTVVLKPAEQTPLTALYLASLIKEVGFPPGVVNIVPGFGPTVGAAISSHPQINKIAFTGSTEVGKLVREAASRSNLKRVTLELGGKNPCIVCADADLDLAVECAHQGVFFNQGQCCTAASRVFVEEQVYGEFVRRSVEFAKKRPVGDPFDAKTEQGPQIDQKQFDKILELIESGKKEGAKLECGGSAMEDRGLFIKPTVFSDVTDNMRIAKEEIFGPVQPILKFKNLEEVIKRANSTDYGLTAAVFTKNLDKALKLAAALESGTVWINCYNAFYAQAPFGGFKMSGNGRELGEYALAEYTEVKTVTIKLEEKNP
Text: as §1

[3] = biological target: T1, ALDH1a3; assay: ALDEFLUOR assay in SUM159-M1a-Aldh1a3 cells; assay type: cell-based; set-up: lentiviral vectors containing either the vector backbone or full-length human Aldh1a3; expressed in transfected cells; host or cells: SUM159-M1a human breast cancer cells, lentiviral pLex vector; settings: for Inhi-bitory Activity at 100 nM (%) / Percent of Cells Positive for ALDEFLUOR ™ at 100 nM: SUM159-M1a-Aldh1a3 cells, compound at 100 nM
Experimental: (§2) Cells were counted, centrifuged and resuspended at 1,000,000 cells/mL in ALDEFLUOR™ buffer (Stemcell Technologies). ALDEFLUOR™ substrate (Stemcell Technologies, 1:200) and test compound or 1 mM DEAB were added to cell suspension and incubated at 37° C. for 45 minutes with vortexing every 15 minutes. Cells were centrifuged and resuspended in ALDEFLUOR™ buffer with DAPI at 5 μg/mL. Samples were analyzed with the BD LSR2 flow cytometry platform. Gating was performed using DEAB as a negative control.
Gating for background fluorescence was performed using 1 millimolar DEAB as a negative control.
The [inh-min]threshold was set at the lower bound of two standard deviations of control samples, while the IC50 threshold was set at 50% of the average of control samples.
An ALDEFLUOR™ assay was also used to assess the relative activity of several compounds described herein against SUM159-M1a-Aldh1a3 cells.

[4] = test system: ALDH isoforms 1a1, 1a2, 1a3 and 3a1; assay type: cell-based, human
Experimental: The coding sequences of Aldh1a1, Aldh1a2, Aldh1a3 and Aldh3a1 were cloned from cDNA made from pooled human reference RNA samples. Cloned sequences flanked by Age1 and Xho1 restriction sites were inserted into the pLex lentiviral plasmid. Clones were sequenced and compared against NCBI expressed sequence tags ([…]) for accuracy. […]. Viruses were collected and filtered at 0.45 um, then cells were transduced using polybrene (8 μg/mL) for 12 hours, followed by culture with 1 μg/mL puromycin for the duration of experiments. All viral transduction and selection was performed on a cell population-wide basis.
as §2
ALDH isoforms 1a1, 1a2, 1a3 and 3a1 were expressed in MCF7 or SUM159 cells, which were subsequently used in an ALDEFLUOR™ assay.

Compound: Cc1ccc(C(=O)Nc2ccc3c(c2)CCC(=O)N3)c(C)c1 [Compound 12]
- IC50 [1]: > 5 µM
- IC50 [2]: > 5 µM
- Inhi-bitory Activity at 100 nM (%) [3]: 3.3%
- Percent of Cells Positive for ALDEFLUOR ™ at 100 nM [3]: 74%

Compound: CCc1cnccc1C(=O)Nc1ccc2c(c1)CCC(=O)N2 [Compound 9, 3-ethyl-N-(2-oxo-3,4-dihydro-1H-quinolin-6-yl)pyridine-4-carboxamide]
- inhibition of ALDH1a3 activity (percentage of ALDEFLUOR-positive cells) ([3]; 100 nM, FIG. 6A): high-affinity compounds for the inhibition of ALDH1a3 activity

Compound: O=C1CCc2cc(NC(=O)c3ccncc3)c(F)cc2N1 [Compound 2]
- IC50 [1]: > 5 µM
- IC50 [2]: > 5 µM
- Inhi-bitory Activity at 100 nM (%) [3]: 8%
- Percent of Cells Positive for ALDEFLUOR ™ at 100 nM [3]: 70%

Compound: CC(C)Cc1cnccc1C(=O)Nc1cc2c(cc1F)NC(=O)CC2 [Compound 7]
- IC50 [1]: < 0.1 µM
- IC50 [2]: 0.1 to 0.25 µM
- relative potency, ALDEFLUOR activity ([3]; 10 nM, FIG. 6C): nearly twice as potent as MBE 1.5

Compound: Cc1ccc(C)c(CNc2ccc3c(c2)CCC(=O)N3)c1 [Compound 10]
- IC50 [1]: 1 to 5 µM
- IC50 [2]: 1 to 5 µM
- Inhi-bitory Activity at 100 nM (%) [3]: 45%
- Percent of Cells Positive for ALDEFLUOR ™ at 100 nM [3]: 42%

Compound: 3-ethyl-N-(2-oxo-3,4-dihydro-1H-quinolin-6-yl)pyridine-4-carboxamide [Compound 9]
- IC50 [1]: < 0.1 µM
- IC50 [2]: 0.25 to 1 µM
- Inhi-bitory Activity at 100 nM (%) [3]: 83%
- Percent of Cells Positive for ALDEFLUOR ™ at 100 nM [3]: 13%

Compound: Cc1ccc(C(=O)Nc2ccc3c(c2)CCC(=O)N3)cc1C [Compound 11]
- IC50 [1]: > 5 µM
- IC50 [2]: > 5 µM
- Inhi-bitory Activity at 100 nM (%) [3]: 0.60%
- Percent of Cells Positive for ALDEFLUOR ™ at 100 nM [3]: 76%

Compound: 2-ethyl-N-(7-fluoro-2-oxo-3,4-dihydro-1H-quinolin-6-yl)benzamide [Compound 4]
- IC50 [1]: < 0.1 µM
- ALDH isoform specificity, ALDEFLUOR-positive cells [4]: specifically inhibits ALDH1a3 at concentrations below 10 μM
- IC50 [2]: 0.1 to 0.25 µM
- Inhi-bitory Activity at 100 nM (%) [3]: 100%
- Percent of Cells Positive for ALDEFLUOR ™ at 100 nM [3]: 0.03%

Compound: CCc1cnccc1CNc1cc2c(cc1F)NC(=O)CC2 [Compound 3]
- IC50 [1]: 1 to 5 µM
- IC50 [2]: 1 to 5 µM
- Inhi-bitory Activity at 100 nM (%) [3]: 55%
- Percent of Cells Positive for ALDEFLUOR ™ at 100 nM [3]: 34%

More lines, now with the values ahead:

- IC50 [1]: > 5 µM
- IC50 [2]: 1 to 5 µM
- Inhi-bitory Activity at 100 nM (%) [3]: 42%
- Percent of Cells Positive for ALDEFLUOR ™ at 100 nM [3]: 45%
Compound: Cc1ccccc1C(=O)Nc1ccc2c(c1)CCC(=O)N2 [Compound 13]

- IC50 [1]: > 5 µM
- IC50 [2]: > 5 µM
- Inhi-bitory Activity at 100 nM (%) [3]: 18%
- Percent of Cells Positive for ALDEFLUOR ™ at 100 nM [3]: 63%
Compound: Cc1cnccc1C(=O)Nc1cc2c(cc1F)NC(=O)CC2 [Compound 15]

- IC50 [1]: > 5 µM
- IC50 [2]: > 5 µM
- Inhi-bitory Activity at 100 nM (%) [3]: 11%
- Percent of Cells Positive for ALDEFLUOR ™ at 100 nM [3]: 68%
Compound: O=C1CCc2cc(NCc3ccccc3)ccc2N1 [Compound 14]

- IC50 [1]: > 5 µM
- IC50 [2]: > 5 µM
- Inhi-bitory Activity at 100 nM (%) [3]: 29%
- Percent of Cells Positive for ALDEFLUOR ™ at 100 nM [3]: 55%
Compound: Cc1cc(C(=O)Nc2cc3c(cc2F)NC(=O)CC3)ccn1 [Compound 16]

- IC50 [1]: > 5 µM
- IC50 [2]: > 5 µM
- Inhi-bitory Activity at 100 nM (%) [3]: 2%
- Percent of Cells Positive for ALDEFLUOR ™ at 100 nM [3]: 75%
Compound: O=C1CCc2cc(NCc3cc[nH]c3)c(F)cc2N1 [Compound 17]

- IC50 [1]: < 0.1 µM
- IC50 [2]: 0.25 to 1 µM
Compound: CCc1cnccc1C(=O)Nc1cc2c(cc1Cl)NC(=O)CC2 [Compound 70, N-(7-chloro-2-oxo-3,4-dihydro-1H-quinolin-6-yl)-3-ethyl-pyridine-4-carboxamide]

- IC50 [1]: > 5 µM
- IC50 [2]: > 5 µM
Compound: CCc1cnccc1C(=O)Nc1ccc2c(c1)NC(=O)CC2 [Compound 32]

- IC50 [1]: > 5 µM
- IC50 [2]: 1 to 5 µM
Compound: Cc1cnccc1/C=C/c1ccc2c(c1)CCC(=O)N2 [Compound 30, 6-[(E)-2-(3-methyl-4-pyridyl)vinyl]-3,4-dihydro-1H-quinolin-2-one]

- IC50 [1]: 0.25 to 1 µM
- IC50 [2]: 0.25 to 1 µM
Compound: CCc1cccnc1C(=O)Nc1cc2c(cc1Cl)NC(=O)CC2 [Compound 72, N-(7-chloro-2-oxo-3,4-dihydro-1H-quinolin-6-yl)-3-ethyl-pyridine-2-carboxamide]

- IC50 [1]: > 5 µM
- IC50 [2]: > 5 µM
Compound: CCc1cc(=O)n(C)cc1C(=O)Nc1ccc2c(c1)CCC(=O)N2 [Compound 76, 4-ethyl-1-methyl-6-oxo-N-(2-oxo-3,4-dihydro-1H-quinolin-6-yl)pyridine-3-carboxamide]

- IC50 [1]: > 5 µM
- IC50 [2]: > 5 µM
Compound: CCc1c[nH]c(=O)cc1C(=O)Nc1ccc2c(c1)CCC(=O)N2 [Compound 51, 5-ethyl-2-oxo-N-(2-oxo-3,4-dihydro-1H-quinolin-6-yl)-1H-pyridine-4-carboxamide]
